{
  "source": "patent US12622910B2",
  "about": "“Inhibitors of Bruton's tyrosine kinase and methods of their use” (Janssen Pharmaceutica NV, priority 2021, dated 2026)",
  "key": {"CYP3A4": {"target": "T1, CYP3A4 (Homo sapiens, UniProt P08684)", "T1 construct": "with specific CYP probe substrates in human liver microsomes; from tissue; host or cells: human liver microsomes", "T1 sequence (P08684 whole entry)": "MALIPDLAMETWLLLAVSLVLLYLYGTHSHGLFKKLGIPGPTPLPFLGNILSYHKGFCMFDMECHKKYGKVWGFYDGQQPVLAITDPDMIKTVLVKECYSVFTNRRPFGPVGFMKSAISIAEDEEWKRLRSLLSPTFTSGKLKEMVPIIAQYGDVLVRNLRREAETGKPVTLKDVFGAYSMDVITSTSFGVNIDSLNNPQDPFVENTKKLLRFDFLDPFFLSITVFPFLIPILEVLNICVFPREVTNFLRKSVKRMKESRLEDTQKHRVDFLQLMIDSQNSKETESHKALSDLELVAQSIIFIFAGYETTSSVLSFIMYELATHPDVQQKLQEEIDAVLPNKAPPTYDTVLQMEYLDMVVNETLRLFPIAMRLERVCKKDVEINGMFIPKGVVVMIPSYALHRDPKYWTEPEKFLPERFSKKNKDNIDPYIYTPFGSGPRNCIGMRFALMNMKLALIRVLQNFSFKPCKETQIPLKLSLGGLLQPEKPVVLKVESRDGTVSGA", "assay": "Metabolism by recombinant CYPs", "assay_type": "in vitro ADME", "settings": "1 μM, 100 pmol P450/mL, 1 mM NADPH", "experimental": "(§1) To assess the potential of the compound of Formula (III) to be a time-dependent inhibitor of CYP3A, human liver microsomes were preincubated for 30 minutes at 37° C. with the compound of Formula (III) at concentrations up to 10 μM, and CYP3A activity was measured using testosterone as a probe substrate. […] The potential of the compound of Formula (III) to induce CYPs at the transcriptional level was assessed using Puracyp™ DPX2 (CYP3A4, PXR) and DRE (CYP1A2, AhR) luciferase-reporter cell lines; rifampicin and omeprazole were used as positive controls for CYP3A and CYP1A induction, respectively. The activation by the compound of Formula (III) was <20% of positive control values for PXR (6.6% and 14.1% at 1 and 10 μM change, respectively) or AhR (0.1% and 0.3% change, respectively). […] Potential involvement of various CYP isoforms in the metabolism of the compound of Formula (III) was investigated by measuring the parent compound remaining after 1-hour incubation with the compound of Formula (III) (1 μM) with recombinant CYPs (rCYPs) at 100 pmol P450/mL in the presence of 1 mM NADPH at 37° C. The only isozyme that produced notable the compound of Formula (III) turnover with <1% parent remaining after 1-hour incubation was CYP3A4 (FIG. 24). […]"}, "BTK": {"target": "BTK (Homo sapiens, UniProt Q06187)", "sequence (Q06187 whole entry)": "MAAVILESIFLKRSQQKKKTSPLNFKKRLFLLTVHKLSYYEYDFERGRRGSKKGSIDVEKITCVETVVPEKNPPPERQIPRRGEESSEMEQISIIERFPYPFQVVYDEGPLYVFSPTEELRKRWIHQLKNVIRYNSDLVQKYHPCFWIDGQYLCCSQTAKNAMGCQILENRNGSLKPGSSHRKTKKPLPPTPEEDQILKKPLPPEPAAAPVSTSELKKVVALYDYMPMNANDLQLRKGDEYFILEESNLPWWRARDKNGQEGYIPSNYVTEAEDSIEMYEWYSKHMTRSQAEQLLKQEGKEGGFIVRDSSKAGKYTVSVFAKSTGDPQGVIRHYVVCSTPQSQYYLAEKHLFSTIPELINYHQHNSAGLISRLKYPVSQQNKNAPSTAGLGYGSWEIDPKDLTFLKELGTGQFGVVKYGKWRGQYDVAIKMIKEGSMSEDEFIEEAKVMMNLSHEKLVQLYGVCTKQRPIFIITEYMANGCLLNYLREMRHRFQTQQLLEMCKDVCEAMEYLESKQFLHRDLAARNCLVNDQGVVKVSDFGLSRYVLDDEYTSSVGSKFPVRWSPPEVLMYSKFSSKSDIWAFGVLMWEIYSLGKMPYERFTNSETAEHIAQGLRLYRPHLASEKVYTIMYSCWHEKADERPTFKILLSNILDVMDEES", "assay": "Ramos B cell BTK occupancy assay (probe ELISA)", "assay_type": "cell-based", "design": "endogenous in cells", "experimental": "In vitro cellular target engagement-The dose-response of BTK occupancy was assessed using a Ramos B cell occupancy assay. Irreversible reaction with […] excludes it from further reaction and enables selective detection of the free (unreacted) BTK with a chemical probe, which utilizes the same binding site and reaction mechanism as the compound of formula (III). The probe carries a biotin sidechain to tag free BTK with an affinity handle to enable detection by ELISA."}, "[1]": {"assay": "Metabolic stability in liver microsomes", "assay_type": "in vitro ADME, mouse", "experimental": "(§2) Additional Data on Preclinical PK Profile—Protein binding of the compound of Formula (III) was studied using an equilibrium dialysis method in plasma from human, cynomolgus monkey, beagle dog, Sprague Dawley rat, CD-1 mouse, and guinea pig at 0.25, 2.5, and 25 μM. […] In human and monkey, the plasma protein binding was concentration dependent. […] Free fraction of the compound of Formula (III) in liver microsomes from various species ranged from 75.1% to 87.9% at 0.25 mg/mL and from 58.9% to 86.5% at 1.0 mg/mL (Table 17). […] In hepatocytes, the compound of Formula (III) turnover followed a similar trend, with T1/2 ranging from 75.3 minutes in monkey to 278.1 minutes in human."}, "AhR": {"test_system": "AhR", "assay": "Puracyp DRE luciferase-reporter cell line (CYP1A2 induction)", "assay_type": "in vitro ADME", "experimental": "as §1"}, "P-gp (MDR1)": {"test_system": "P-gp (MDR1)", "assay": "in vitro", "settings": "dog, MDCK-MDR1", "protocol": "(§3) In vitro Absorption, Distribution, Metabolism, and Excretion—The compound of Formula (III) was assessed at a concentration of 5 μM in cell permeability models."}, "[2]": {"assay": "Metabolic stability in hepatocytes", "assay_type": "in vitro ADME", "settings": "for half-life: read-out: T1/2, hepatocytes", "experimental": "as §2"}, "OCI-LY10 xenografts": {"test_system": "OCI-LY10 xenografts", "assay": "OCI-LY10 human ABC-DLBCL xenograft efficacy", "assay_type": "in vivo, female NSG mice", "settings": "Day 45", "excerpt": "FIG. 20 depicts the effect of the compound of Formula (III) on growth of established OCI-LY10 human ABC-DLBCL xenografts in mice PEG400/PVP-VA64, Polyethylene glycol 400/N-vinylpyrrolidone and vinyl acetate 64; SEM, standard error of the mean. Group tumor volumes are graphed as the mean±SEM. Bar below x-axis indicates the treatment period. Groups are plotted while at least ⅔ of the animals remained on the study. Mice were implanted SC on the right flank on Day 0. Tumors were established 33 days post implantation, mice were randomized into experimental groups and dosed orally twice or once daily for 3 weeks (n=10/group).\nTo evaluate the duration of signaling shutdown and occupancy of BTK protein after compound administration, we determined the amount of free BTK protein in OCI-LY10 DLBCL tumor lysates harvested using an BTK occupancy assay. […] BTK protein occupancy levels remained high with 71%, 94% and 96%, respectively, at 12 hours and 70%, 91% and 85%, respectively after 24 hours. (FIG. 19). The antitumor efficacy of compound of Formula (III) was assessed in mice bearing established SC OCI-LY10 human CD79b mutant DLBCL xenografts in female NSG mice, dosed either once (QD) or twice (BID) a day. Analysis of tumor growth inhibition was performed 14 days into the 21-day treatment period (Day 45) as that was the last day when 2/3 of the vehicle controls remained on the study. Compound of Formula (III) induced tumor growth inhibition in the OCI-LY10 model at all dose levels. […] Taken together, the in vivo data support a first in-human trial of the compound of Formula (III) in combination with Venetoclax in patients with B cell lymphomas."}, "[3]": {"assay": "Protein binding in RPMI culture media containing 10% FBS", "assay_type": "in vitro ADME", "settings": "bovine, read-out: % free in RPMI culture media containing 10% FBS"}, "Caco-2 permeability": {"assay": "Caco-2 permeability", "assay_type": "in vitro ADME", "settings": "human", "protocol": "as §3"}, "Caco-2": {"test_system": "Caco-2", "assay": "Caco-2 permeability", "assay_type": "in vitro ADME", "settings": "Caco-2, 5 μM", "protocol": "as §3"}},
  "data": [
    {"smiles": "C=CC(=O)N[C@H]1CCC[C@H]1NC(=O)c1sc2nccc3c2c1NC(=O)N3c1cnc(CC(C)C)cc1C", "note": "(atropisomer, axis not shown) [compound of Formula (III), N-((1R,2S)-2-Acrylamidocyclopentyl)-5-(S)-(6-isobutyl-4-methylpyridin-3-yl)-4-oxo-4,5-dihydro-3H-1-thia-3,5,8-triazaacenaphthylene-2-carboxamide]", "values": [
      {"measurement": "parent remaining after 1-hour incubation", "setting": "CYP3A4", "result": "< 1", "unit": "%"},
      {"measurement": "time to full BTK occupancy", "setting": "BTK; 100 and 300 nM", "result": "≤ 40", "unit": "min"},
      {"measurement": "IC50", "setting": "BTK; Ramos B cells, n=11, read-out: BTK occupancy IC50 (mean±SD)", "result": "21 ± 7", "unit": "nM"},
      {"measurement": "Extraction Ratio, liver microsomes", "setting": "[1]; Mouse", "result": 0.79},
      {"measurement": "microsomal CLint", "setting": "[1]; mouse, liver microsomes", "result": 142, "unit": "µL/min/mg"},
      {"measurement": "half-life", "setting": "[1]; mouse, liver microsomes, read-out: T1/2, liver microsomes", "result": 4.9, "unit": "min"},
      {"measurement": "AhR activation, % of positive control (omeprazole)", "setting": "AhR; 1 μM", "result": 0.1, "unit": "%"},
      {"measurement": "AhR activation, % of positive control (omeprazole)", "setting": "AhR; 10 μM", "result": 0.3, "unit": "%"},
      {"measurement": "Papp A→B at 5 μM", "setting": "P-gp (MDR1)", "result": "< 0.483", "unit": "×10⁻⁶ cm/s"},
      {"measurement": "Papp B→A at 5 μM", "setting": "P-gp (MDR1)", "result": 55.4, "unit": "×10⁻⁶ cm/s"},
      {"measurement": "efflux ratio at 5 μM", "setting": "P-gp (MDR1)", "result": "> 115"},
      {"measurement": "hepatocyte CLint", "setting": "[2]; dog", "result": 19.2, "unit": "µL/min/1e6 cells"},
      {"measurement": "half-life", "setting": "[2]; dog", "result": 4.62, "unit": "h"},
      {"measurement": "hepatocyte CLint", "setting": "[2]; human", "result": 15.4, "unit": "µL/min/1e6 cells"},
      {"measurement": "half-life", "setting": "[2]; human", "result": 4.64, "unit": "h"},
      {"measurement": "hepatocyte CLint", "setting": "[2]; rat", "result": 52.3, "unit": "µL/min/1e6 cells"},
      {"measurement": "half-life", "setting": "[2]; rat", "result": 2.12, "unit": "h"},
      {"measurement": "TGI", "setting": "OCI-LY10 xenografts; 5 mg/kg BID", "result": 26, "unit": "%"},
      {"measurement": "ΔTGI", "setting": "OCI-LY10 xenografts; 5 mg/kg BID", "result": 34, "unit": "%"},
      {"measurement": "TGI", "setting": "OCI-LY10 xenografts; 10 mg/kg QD", "result": 24, "unit": "%"},
      {"measurement": "ΔTGI", "setting": "OCI-LY10 xenografts; 10 mg/kg QD", "result": 30, "unit": "%"},
      {"measurement": "TGI", "setting": "OCI-LY10 xenografts; 15 mg/kg BID", "result": 51, "unit": "%"},
      {"measurement": "ΔTGI", "setting": "OCI-LY10 xenografts; 15 mg/kg BID", "result": 66, "unit": "%"},
      {"measurement": "TGI", "setting": "OCI-LY10 xenografts; 30 mg/kg QD", "result": 35, "unit": "%"},
      {"measurement": "ΔTGI", "setting": "OCI-LY10 xenografts; 30 mg/kg QD", "result": 45, "unit": "%"},
      {"measurement": "TGI", "setting": "OCI-LY10 xenografts; 50 mg/kg BID", "result": 78, "unit": "%"},
      {"measurement": "ΔTGI", "setting": "OCI-LY10 xenografts; 50 mg/kg BID", "result": 102, "unit": "%"},
      {"measurement": "TGI", "setting": "OCI-LY10 xenografts; 100 mg/kg QD", "result": 51, "unit": "%"},
      {"measurement": "ΔTGI", "setting": "OCI-LY10 xenografts; 100 mg/kg QD", "result": 65, "unit": "%"},
      {"measurement": "fraction unbound at 1 μM", "setting": "[3]", "result": 0.317},
      {"measurement": "efflux ratio at 5 μM", "setting": "Caco-2 permeability; Caco-2, read-out: Efflux Ratio (BA/AB)", "result": 8.2},
      {"measurement": "Papp A→B at 5 μM", "setting": "Caco-2 permeability; Caco-2, 5 μM", "result": 6.69, "unit": "×10⁻⁶ cm/s"},
      {"measurement": "Papp B→A at 5 μM", "setting": "Caco-2 permeability; Caco-2, 5 μM", "result": 54.9, "unit": "×10⁻⁶ cm/s"},
      {"measurement": "Papp A to B", "setting": "Caco-2", "result": "6.69 10^−6 cm/s"},
      {"measurement": "Papp B to A", "setting": "Caco-2", "result": "54.9 10^−6 cm/s"}
    ]}
  ]
}
